Reference: PMC8460406, “PET/CT imaging of head-and-neck and pancreatic cancer in humans by targeting the “Cancer Integrin” αvβ6 with Ga-68-Trivehexin” (European Journal of Nuclear Medicine and Molecular Imaging, 2021)
Read-outs that look alike come from different tables or passages of the source.

Experiments:
αvβ6-integrin [1] = target: T1, αvβ6-integrin (Homo sapiens, UniProt P06756+P18564); test: ELISA on immobilized integrins (integrin affinity), αvβ6; type: binding; settings: 95% confidence interval in parentheses
T1 sequence (P06756 31-992 limits assumed): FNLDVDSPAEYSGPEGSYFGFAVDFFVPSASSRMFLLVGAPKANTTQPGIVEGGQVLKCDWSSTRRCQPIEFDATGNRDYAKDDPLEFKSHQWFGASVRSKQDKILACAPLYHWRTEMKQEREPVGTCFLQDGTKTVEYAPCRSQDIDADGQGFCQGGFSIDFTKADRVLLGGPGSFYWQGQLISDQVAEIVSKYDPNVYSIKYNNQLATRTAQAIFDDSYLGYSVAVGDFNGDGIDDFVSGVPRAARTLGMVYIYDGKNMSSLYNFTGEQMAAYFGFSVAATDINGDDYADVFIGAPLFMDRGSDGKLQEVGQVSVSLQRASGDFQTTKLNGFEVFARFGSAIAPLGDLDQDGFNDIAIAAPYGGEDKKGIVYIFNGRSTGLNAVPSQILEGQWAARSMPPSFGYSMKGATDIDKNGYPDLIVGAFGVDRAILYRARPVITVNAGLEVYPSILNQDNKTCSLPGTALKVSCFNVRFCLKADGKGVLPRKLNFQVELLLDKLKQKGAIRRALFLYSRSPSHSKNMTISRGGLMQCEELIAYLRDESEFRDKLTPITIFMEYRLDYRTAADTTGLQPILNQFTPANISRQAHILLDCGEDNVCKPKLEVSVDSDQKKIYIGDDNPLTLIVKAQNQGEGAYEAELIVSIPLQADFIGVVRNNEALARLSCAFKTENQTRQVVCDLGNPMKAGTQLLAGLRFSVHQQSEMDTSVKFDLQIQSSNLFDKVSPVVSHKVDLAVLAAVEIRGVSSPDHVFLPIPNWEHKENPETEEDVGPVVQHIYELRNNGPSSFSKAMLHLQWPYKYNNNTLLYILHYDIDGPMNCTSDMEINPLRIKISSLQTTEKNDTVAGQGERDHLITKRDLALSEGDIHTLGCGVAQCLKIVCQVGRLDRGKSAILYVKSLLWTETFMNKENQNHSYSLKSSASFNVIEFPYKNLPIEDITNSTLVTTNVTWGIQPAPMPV
T1 sequence (P18564 22-707 limits assumed): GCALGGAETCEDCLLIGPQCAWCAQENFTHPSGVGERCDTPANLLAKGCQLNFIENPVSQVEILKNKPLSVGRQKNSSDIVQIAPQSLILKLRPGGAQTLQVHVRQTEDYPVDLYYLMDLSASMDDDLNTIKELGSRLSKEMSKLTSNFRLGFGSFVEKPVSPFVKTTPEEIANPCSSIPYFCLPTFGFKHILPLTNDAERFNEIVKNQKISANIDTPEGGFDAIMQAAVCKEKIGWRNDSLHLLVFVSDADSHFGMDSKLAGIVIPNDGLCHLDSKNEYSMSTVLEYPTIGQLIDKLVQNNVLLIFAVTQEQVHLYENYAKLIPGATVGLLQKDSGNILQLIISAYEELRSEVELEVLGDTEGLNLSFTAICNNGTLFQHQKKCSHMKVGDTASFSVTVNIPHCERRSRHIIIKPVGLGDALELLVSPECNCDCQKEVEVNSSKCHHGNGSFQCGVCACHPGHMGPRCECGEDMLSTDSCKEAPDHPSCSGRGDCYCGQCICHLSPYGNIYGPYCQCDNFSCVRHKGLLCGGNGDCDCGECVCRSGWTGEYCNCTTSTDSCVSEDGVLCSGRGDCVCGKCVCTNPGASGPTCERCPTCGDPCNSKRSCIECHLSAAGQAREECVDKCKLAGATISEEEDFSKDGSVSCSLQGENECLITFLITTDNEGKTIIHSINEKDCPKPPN
From the text: (§1) Materials, reagents, general procedures, and instrumentation used for chemical syntheses and analyses have been detailed elsewhere. In addition to what has been reported before, the building block TRAP(azide)3 was purchased from Fosfinos s.r.o. (Kladno, CZ). c[FGDLAFp(NMe)K(pentynoic amide)] and TRAP(AvB6)3 were synthesized according to the literature. Previously described protocols were followed for determination of integrin affinities by ELISA on immobilized integrins and for β6-integrin immunohistochemistry (IHC).

α5β1-integrin = α5β1-integrin (Homo sapiens, UniProt P05556+P08648); test: ELISA on immobilized integrins (integrin affinity), α5β1; type: binding; settings: for αvβ6-selectivity over α5β1: IC50-based factor
α5β1-integrin, sequence (P08648 42-995 limits assumed): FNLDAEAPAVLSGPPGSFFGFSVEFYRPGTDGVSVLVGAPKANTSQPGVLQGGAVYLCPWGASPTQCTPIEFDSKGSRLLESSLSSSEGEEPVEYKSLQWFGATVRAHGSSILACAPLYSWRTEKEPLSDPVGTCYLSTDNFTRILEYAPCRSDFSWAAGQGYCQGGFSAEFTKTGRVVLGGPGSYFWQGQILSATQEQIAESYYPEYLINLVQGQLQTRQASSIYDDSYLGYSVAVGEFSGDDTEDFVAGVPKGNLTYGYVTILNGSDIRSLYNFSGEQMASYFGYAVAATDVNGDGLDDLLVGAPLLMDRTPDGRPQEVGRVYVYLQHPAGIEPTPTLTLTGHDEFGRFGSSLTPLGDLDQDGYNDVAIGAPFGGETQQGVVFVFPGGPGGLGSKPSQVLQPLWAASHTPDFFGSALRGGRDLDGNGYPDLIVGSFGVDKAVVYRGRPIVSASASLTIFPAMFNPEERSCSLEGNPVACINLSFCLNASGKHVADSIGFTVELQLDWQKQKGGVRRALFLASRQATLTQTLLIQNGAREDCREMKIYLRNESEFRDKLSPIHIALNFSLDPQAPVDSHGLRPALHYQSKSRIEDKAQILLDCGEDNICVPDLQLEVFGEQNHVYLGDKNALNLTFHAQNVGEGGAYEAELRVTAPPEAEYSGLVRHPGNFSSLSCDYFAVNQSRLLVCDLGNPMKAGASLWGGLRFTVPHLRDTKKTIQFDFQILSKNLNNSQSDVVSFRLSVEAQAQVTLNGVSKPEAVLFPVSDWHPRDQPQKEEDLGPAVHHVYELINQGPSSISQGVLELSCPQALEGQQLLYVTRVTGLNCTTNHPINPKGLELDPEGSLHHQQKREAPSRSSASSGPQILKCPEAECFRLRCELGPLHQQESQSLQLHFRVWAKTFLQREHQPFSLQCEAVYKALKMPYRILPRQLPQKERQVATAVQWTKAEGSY
α5β1-integrin, sequence (P05556 21-728 limits assumed): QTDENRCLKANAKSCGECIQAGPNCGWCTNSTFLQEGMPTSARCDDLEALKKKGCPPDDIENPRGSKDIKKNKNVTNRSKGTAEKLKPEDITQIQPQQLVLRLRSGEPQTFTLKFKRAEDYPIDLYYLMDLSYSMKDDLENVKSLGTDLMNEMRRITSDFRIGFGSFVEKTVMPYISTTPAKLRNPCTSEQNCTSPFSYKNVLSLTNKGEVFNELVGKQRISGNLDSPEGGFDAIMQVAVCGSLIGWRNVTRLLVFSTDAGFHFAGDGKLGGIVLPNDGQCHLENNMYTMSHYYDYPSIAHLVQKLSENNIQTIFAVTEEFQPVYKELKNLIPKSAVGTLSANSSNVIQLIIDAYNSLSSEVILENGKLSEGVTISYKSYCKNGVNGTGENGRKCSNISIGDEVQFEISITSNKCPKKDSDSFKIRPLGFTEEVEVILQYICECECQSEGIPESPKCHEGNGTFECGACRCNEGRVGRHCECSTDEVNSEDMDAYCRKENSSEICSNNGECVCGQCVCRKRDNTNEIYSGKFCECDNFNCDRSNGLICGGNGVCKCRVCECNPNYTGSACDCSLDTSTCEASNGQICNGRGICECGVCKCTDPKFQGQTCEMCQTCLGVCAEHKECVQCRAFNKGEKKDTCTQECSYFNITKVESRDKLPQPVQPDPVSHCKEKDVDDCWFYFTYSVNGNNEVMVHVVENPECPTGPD
From the text: as §1

αvβ3-integrin = αvβ3-integrin (Homo sapiens, UniProt P05106+P06756); test: ELISA on immobilized integrins (integrin affinity), αvβ3; type: binding; settings: for IC50: 95% confidence interval in parentheses; for αvβ6-selectivity over αvβ3: IC50-based factor
αvβ3-integrin, sequence (P06756 31-1048): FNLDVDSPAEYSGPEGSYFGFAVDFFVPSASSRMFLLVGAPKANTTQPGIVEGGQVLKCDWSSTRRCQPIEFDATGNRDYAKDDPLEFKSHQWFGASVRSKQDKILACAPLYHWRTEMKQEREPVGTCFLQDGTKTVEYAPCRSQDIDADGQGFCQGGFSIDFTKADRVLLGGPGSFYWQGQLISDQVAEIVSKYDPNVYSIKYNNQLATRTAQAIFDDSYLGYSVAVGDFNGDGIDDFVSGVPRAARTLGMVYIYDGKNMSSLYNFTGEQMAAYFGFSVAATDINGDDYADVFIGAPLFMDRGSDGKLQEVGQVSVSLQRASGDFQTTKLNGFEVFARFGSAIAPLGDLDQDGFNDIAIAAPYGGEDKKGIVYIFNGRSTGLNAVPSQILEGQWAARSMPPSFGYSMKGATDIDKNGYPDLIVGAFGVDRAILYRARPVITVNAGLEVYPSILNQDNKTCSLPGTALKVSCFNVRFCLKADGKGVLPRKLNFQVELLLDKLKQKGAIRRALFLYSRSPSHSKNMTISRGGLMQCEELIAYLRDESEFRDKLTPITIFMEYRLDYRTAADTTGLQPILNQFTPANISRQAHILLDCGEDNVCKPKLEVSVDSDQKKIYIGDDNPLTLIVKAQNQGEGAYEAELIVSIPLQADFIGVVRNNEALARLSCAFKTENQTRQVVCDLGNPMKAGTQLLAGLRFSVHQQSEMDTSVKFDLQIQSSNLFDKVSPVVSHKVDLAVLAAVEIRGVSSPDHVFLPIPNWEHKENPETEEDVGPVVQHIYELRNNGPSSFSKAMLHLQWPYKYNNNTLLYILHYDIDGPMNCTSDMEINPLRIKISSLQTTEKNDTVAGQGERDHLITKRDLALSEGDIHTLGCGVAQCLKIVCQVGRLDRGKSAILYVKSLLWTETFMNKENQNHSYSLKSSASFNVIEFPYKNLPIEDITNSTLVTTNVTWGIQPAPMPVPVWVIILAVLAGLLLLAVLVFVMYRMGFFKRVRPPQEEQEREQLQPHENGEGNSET
αvβ3-integrin, sequence (P05106 27-788): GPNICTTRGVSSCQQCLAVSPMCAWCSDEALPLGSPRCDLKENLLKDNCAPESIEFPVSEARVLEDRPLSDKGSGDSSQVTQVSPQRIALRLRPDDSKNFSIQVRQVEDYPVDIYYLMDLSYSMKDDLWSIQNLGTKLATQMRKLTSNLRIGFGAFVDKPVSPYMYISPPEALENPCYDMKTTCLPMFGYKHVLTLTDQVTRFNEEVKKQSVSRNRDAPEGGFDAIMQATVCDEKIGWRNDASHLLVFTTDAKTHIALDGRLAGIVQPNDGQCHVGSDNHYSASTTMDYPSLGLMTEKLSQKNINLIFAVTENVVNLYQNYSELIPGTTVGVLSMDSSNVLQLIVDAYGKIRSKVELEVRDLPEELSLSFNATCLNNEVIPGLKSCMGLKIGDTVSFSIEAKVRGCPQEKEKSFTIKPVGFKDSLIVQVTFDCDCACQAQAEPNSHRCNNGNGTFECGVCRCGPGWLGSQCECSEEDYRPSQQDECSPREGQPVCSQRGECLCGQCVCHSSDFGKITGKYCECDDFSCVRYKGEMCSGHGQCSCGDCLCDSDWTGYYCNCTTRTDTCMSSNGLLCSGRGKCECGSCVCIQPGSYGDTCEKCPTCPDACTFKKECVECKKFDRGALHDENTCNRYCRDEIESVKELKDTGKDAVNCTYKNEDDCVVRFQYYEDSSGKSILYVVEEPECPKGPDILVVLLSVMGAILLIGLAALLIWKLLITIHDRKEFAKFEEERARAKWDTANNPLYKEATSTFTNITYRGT
From the text: as §1

αvβ8-integrin = αvβ8-integrin (Homo sapiens, UniProt P06756+P26012); test: ELISA on immobilized integrins (integrin affinity), αvβ8; type: binding; settings: for IC50: 95% confidence interval in parentheses; for αvβ6-selectivity over αvβ8: IC50-based factor
From the text: as §1

[2] = tested on: αvβ6-integrin expressing carcinomas; test: PET/CT imaging of carcinomas in human (HNSCC, parotideal adenocarcinoma, PDAC); type: in vivo
Description: All human participants provided written informed consent, also for publication of images, prior to the investigation. […] No significant changes in vital signs or the results of laboratory studies or electrocardiograms were observed. Data for a total of 4 human subjects were included in this report. The PET/CT for patient #1 was performed according to a previously published protocol, as was calculation of the dosimetric parameters.
A panendoscopy and tracheostomy were carried out 4 weeks prior to the [^18F]FDG. The tumor was not suitable for surgical removal and a simultaneous radiochemotherapy was indicated.
Patient #3 (Fig. 4C–E) was diagnosed with an adenocarcinoma (salivary duct carcinoma) in the right […] in 2019 and initially underwent total parotidectomy and unilateral neck dissection (pT2 pN1b [21/23] L1 V1 Pn1 R1). A post-resection and contralateral neck-dissection was performed 1 month later, followed by adjuvant radiation. In 2020 the patient developed prelaryngeal and lateral orbita angle metastases, which were resected and adjuvantly irradiated. […] Since no further tumor manifestations were present in both examinations, surgical resection was indicated and performed. β6-integrin IHC [21] was done for specimen of the excised metastasis.
Patient #4 was diagnosed with a carcinoma of the pancreatic head by endosonography and CT morphology. Pancreatic adenocarcinoma was verified by biopsy. […] According to this finding, surgical treatment was rejected and a chemotherapy regimen was started.

in vivo = settings: SCID, mouse, total radioactivity
From the text: All animal experiments were approved by the responsible authority (Regierung von Oberbayern) and have been performed in accordance with general animal welfare regulations in Germany and the institutional guidelines for the care and use of animals. Keeping of the animals, generation of subcutaneous H2009 and MDA-MB-231 tumor xenografts, ex-vivo biodistribution studies, and µPET imaging were done according to previously described protocols. Multiplicity of PET and biodistribution studies ranged from 3 to 5; animal numbers for each individual experiment are denoted in the respective data tables in the Supporting Information and, additionally, in the Results section.

αvβ6-integrin [3] = target: T1, αvβ6-integrin; settings: cited from earlier work
[4] = type: physicochemical; settings: pH 7.4
From the text: Radiolabeling for preclinical experiments and determination of n-octanol–PBS distribution coefficients (log D7.4) was done as described. Applying this protocol, 5 nmol (0.5 nmol for cellular assays in order to maximize molar activity) of TRAP(AvB6)3 or Trivehexin were labeled with ^68 Ga at pH 2, resulting in RCY > 95%. The purity of the radiolabeled compounds was confirmed by radio-TLC, using silica impregnated glass fiber chromatography paper (ITLC® by Agilent) as stationary phase and 0.1 M aq. sodium citrate as mobile phase (purities were > 99%).

[5] = ref [34], read-out: IC50 (αvβ6-integrin affinity)

C#CCCC(=O)NCCCC[C@H]1C(=O)N[C@@H](Cc2ccc(O)cc2)C(=O)N[C@@H](CCCNC(=N)N)C(=O)NCC(=O)N[C@@H](CC(=O)O)C(=O)N[C@@H](CC(C)C)C(=O)N[C@@H](C)C(=O)N[C@@H](Cc2ccc(O)cc2)C(=O)N2CCC[C@@H]2C(=O)N1C [Tyr2-alkyne, c[YRGDLAYp(NMe)K(pentynoic amide)]]
IC50 (αvβ6-integrin [1]): 0.84 nM
IC50 (α5β1-integrin; 95% confidence interval in parentheses): 150 nM
αvβ6-selectivity over α5β1 (α5β1-integrin): 179
IC50 (αvβ3-integrin): 219 nM
αvβ6-selectivity over αvβ3 (αvβ3-integrin): 261
IC50 (αvβ8-integrin): 26 nM
αvβ6-selectivity over αvβ8 (αvβ8-integrin): 31

OC[C@H]1OC(O)[C@H]([18F])[C@@H](O)[C@@H]1O (some centres unmarked) [[^18F]FDG]
SUVmax around 7-week-old tracheostoma (inflammation) ([2]; patient #2, 61-62 min p.i.): 10.2
SUVmax prelaryngeal cutaneous metastasis of parotideal adenocarcinoma ([2]; patient #3, 67-71 min p.i.): 6.1
metabolic tumor volume ([2]; patient #3, prelaryngeal cutaneous metastasis): 2.2 cm^3

CC(C)C[C@@H]1NC(=O)[C@H](CC(=O)O)NC(=O)CNC(=O)[C@H](CCCNC(=N)N)NC(=O)[C@H](Cc2ccccc2)NC(=O)[C@H](CCCCNC(=O)CCc2cn(CCCNC(=O)CCP(=O)(O)CN3CCN(CP(=O)(O)CCC(=O)NCCCn4cc(CCC(=O)NCCCC[C@H]5C(=O)N[C@@H](Cc6ccccc6)C(=O)N[C@@H](CCCNC(=N)N)C(=O)NCC(=O)N[C@@H](CC(=O)O)C(=O)N[C@@H](CC(C)C)C(=O)N[C@@H](C)C(=O)N[C@@H](Cc6ccccc6)C(=O)N6CCC[C@@H]6C(=O)N5C)nn4)CCN(CP(=O)(O)CCC(=O)NCCCn4cc(CCC(=O)NCCCC[C@H]5C(=O)N[C@@H](Cc6ccccc6)C(=O)N[C@@H](CCCNC(=N)N)C(=O)NCC(=O)N[C@@H](CC(=O)O)C(=O)N[C@@H](CC(C)C)C(=O)N[C@@H](C)C(=O)N[C@@H](Cc6ccccc6)C(=O)N6CCC[C@@H]6C(=O)N5C)nn4)CC3)nn2)N(C)C(=O)[C@H]2CCCN2C(=O)[C@H](Cc2ccccc2)NC(=O)[C@H](C)NC1=O [^68 Ga-TRAP(AvB6)3]
tissue to tissue ratio at 1.5 h (in vivo; tumor/organ ratio Adrenals): 3.7
tissue to tissue ratio at 1.5 h (in vivo; tumor/organ ratio Blood): 2.2
tissue to tissue ratio at 1.5 h (in vivo; tumor/organ ratio Heart (myocard)): 4.2
tissue to tissue ratio at 1.5 h (in vivo; tumor/organ ratio Kidneys): 0.1
tissue to tissue ratio at 1.5 h (in vivo; tumor/organ ratio Large intestine (empty)): 1.6
tissue to tissue ratio at 1.5 h (in vivo; tumor/organ ratio Liver): 1.2
tissue to tissue ratio at 1.5 h (in vivo; tumor/organ ratio Lung): 0.6
tissue to tissue ratio at 1.5 h (in vivo; tumor/organ ratio Muscle): 8.1
tissue to tissue ratio at 1.5 h (in vivo; tumor/organ ratio Pancreas): 10.1
tissue to tissue ratio at 1.5 h (in vivo; tumor/organ ratio Small intestine (empty)): 2.2
tissue to tissue ratio at 1.5 h (in vivo; tumor/organ ratio Spleen): 1.7
tissue to tissue ratio at 1.5 h (in vivo; tumor/organ ratio Stomach (empty)): 0.9
IC50 (αvβ6-integrin [3]; ref [17], read-out: αvβ6-integrin affinity): 0.023 nM
n-octanol-PBS distribution coefficient log D7.4 [4]: − 1.5 ± 0.1

C#CCCC(=O)NCCCC[C@H]1C(=O)N[C@@H](Cc2ccccc2)C(=O)N[C@@H](CCCNC(=N)N)C(=O)NCC(=O)N[C@@H](CC(=O)O)C(=O)N[C@@H](CC(C)C)C(=O)N[C@@H](C)C(=O)N[C@@H](Cc2ccccc2)C(=O)N2CCC[C@@H]2C(=O)N1C [c[FRGDLAFp(NMe)K(pentynoic amide)], reference compound]
IC50 (αvβ6-integrin [1]): 0.17 nM
αvβ6-selectivity over α5β1 (α5β1-integrin): 1329
IC50 (αvβ3-integrin): 424 nM
αvβ6-selectivity over αvβ3 (αvβ3-integrin): 2494
IC50 (αvβ8-integrin): 32 nM
αvβ6-selectivity over αvβ8 (αvβ8-integrin): 188

c[FRGDLAYp(NMe)K] (FRGDLAYPK; HELM PEPTIDE1{F.R.G.D.L.A.Y.[dP].[meK]}$PEPTIDE1,PEPTIDE1,1:R1-9:R2$$$V2.0; SMILES CC(C)C[C@@H]1NC(=O)[C@H](CC(=O)O)NC(=O)CNC(=O)[C@H](CCCNC(=N)N)NC(=O)[C@H](Cc2ccccc2)NC(=O)[C@H](CCCCN)N(C)C(=O)[C@H]2CCCN2C(=O)[C@H](Cc2ccc(O)cc2)NC(=O)[C@H](C)NC1=O)
IC50 (αvβ6-integrin [3]; [5]): 0.39 nM

c[YRGDLAFp(NMe)K] (YRGDLAFPK; HELM PEPTIDE1{Y.R.G.D.L.A.F.[dP].[meK]}$PEPTIDE1,PEPTIDE1,1:R1-9:R2$$$V2.0; SMILES CC(C)C[C@@H]1NC(=O)[C@H](CC(=O)O)NC(=O)CNC(=O)[C@H](CCCNC(=N)N)NC(=O)[C@H](Cc2ccc(O)cc2)NC(=O)[C@H](CCCCN)N(C)C(=O)[C@H]2CCCN2C(=O)[C@H](Cc2ccccc2)NC(=O)[C@H](C)NC1=O)
IC50 (αvβ6-integrin [3]; [5]): 0.4 nM
